In the experiment the target is T1, C5a receptor (Homo sapiens, UniProt P21730).
T1 construct: from tissue; host or cells: polymorphonuclear leukocyte (PMNL) membrane fragments
T1 sequence (P21730 1-350): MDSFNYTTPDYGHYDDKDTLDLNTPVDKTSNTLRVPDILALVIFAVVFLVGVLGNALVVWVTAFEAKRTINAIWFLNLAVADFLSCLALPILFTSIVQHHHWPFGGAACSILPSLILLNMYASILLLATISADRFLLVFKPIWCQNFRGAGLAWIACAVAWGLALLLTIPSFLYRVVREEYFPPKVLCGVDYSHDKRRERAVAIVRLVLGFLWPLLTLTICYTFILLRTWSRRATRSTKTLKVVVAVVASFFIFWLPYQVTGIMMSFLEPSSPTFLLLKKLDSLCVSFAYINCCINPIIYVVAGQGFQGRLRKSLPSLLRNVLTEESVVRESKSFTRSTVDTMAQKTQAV
As to the kind of experiment: Anaphylatoxin (C5a) receptor binding Ki determination, 125I-C5a on PMNL membrane fragments. The note with it: read-out: Ki (In vitro C5a Receptor Binding Potency). As for the experimental part: The membrane-bound radiolabeled C5a was separated from the free radiolabeled C5a by filtration, and the recovered gamma radioactivity was measured. […] Free and membrane-bound ligand were separated by filtration.

*1 amine or outer side, *2 acyl side, *3 side chain or, on linkers, in order; H or OH if unused. Where a SMILES comes first, the peptide text is derived from it. [ ]: non-standard residue; d: D form. The star is where a group is joined. d(hhPhe) = N[C@H](CCCc1ccccc1)C(=O)O; X2 = O=C(C(CCOc1ccccc1)N[*:1])[*:2]; hhPhe = N[C@@H](CCCc1ccccc1)C(=O)O; hPhe = N[C@@H](CCc1ccccc1)C(=O)O; Cha = N[C@@H](CC1CCCCC1)C(=O)O; PhAc = O=C(Cc1ccccc1)*; Ahp = NCCCCCCC(=O)O; Bn = c1ccc(C*)cc1

What is called Ki is a measure of affinity in units of concentration, obtained from inhibition or displacement. As for `CC(C)C[C@H](NC(=O)[C@H](C)NC(=O)[C@H](CC1CCCCC1)NC(=O)[C@@H]1CCCN1C(=O)[C@H](C)NC(=O)[C@@H](N)Cc1ccccc1)C(=O)NC(CCCc1ccccc1)C(=O)N[C@@H](CCCNC(=N)N)C(=O)O` (mixture of isomers) [Example 143, H-Phenylalanyl-Alanyl-Prolyl-{(2S)-2-Amino-3-cyclohexylpropanoyl}-Alanyl-Leucyl-{(±)-2-Amino-5-phenylpentanoyl}-Arginyl-OH], the Ki stood at 0.054 µM. With `CC(C)C[C@H](NC(=O)CNC(=O)[C@@H](N)CCc1ccccc1)C(=O)N[C@H](CCCc1ccccc1)C(=O)N[C@@H](CCCNC(=N)N)C(=O)O` [Example 117, H-{(S)-2-Amino-4-phenylbutyryl}-Glycyl-Leucyl-{(R)-2-Amino-5-phenylpentanoyl}-Arginyl-OH] (H-[hPhe]GL[d(hhPhe)]R-OH) the figure was 0.37 µM.

Consider `CC(C)C[C@H](NC(=O)[C@H](C)NC(=O)[C@H](CC1CCCCC1)NC(=O)[C@@H]1CCCN1C(=O)[C@H](CCCCN)NC(=O)[C@@H](N)Cc1ccccc1)C(=O)N[C@@H](CCCc1ccccc1)C(=O)N[C@@H](CCCNC(=N)N)C(=O)O` [Example 3, H-Phenylalanyl-Lysyl-Prolyl-{(2S)-2-Amino-3-cyclohexylpropanoyl}-Alanyl-Leucyl-{(S)-2-Amino-5-phenylpentanoyl}-Arginyl-OH] (H-FKP[Cha]AL[hhPhe]R-OH), for which the inhibition constant Ki was determined as 0.013 µM.

Turning to `CC(C)C[C@H](NC(=O)CNC(=O)[C@@H](CC1CCCCC1)NC(=O)CCCCCN)C(=O)NC(CCCc1ccccc1)C(=O)N[C@@H](CCCNC(=N)N)C(=O)O` (single isomer, unassigned) [Example 34], the Ki was found to be 21.6 µM. Next, `CC(C)C[C@H](NC(=O)CNC(=O)[C@@H](N)Cc1c[nH]c2ccccc12)C(=O)N[C@H](CCCc1ccccc1)C(=O)N[C@@H](CCCNC(=N)N)C(=O)O` [Example 130, H-Tryptophanyl-Glycyl-Leucyl-{(R)-2-Amino-5-phenylpentanoyl}-Arginyl-OH] (H-WGL[d(hhPhe)]R-OH): 0.14 µM; `CC(C)C[C@H](NC(=O)[C@H](C)NC(=O)[C@H](CC1CCCCC1)NC(=O)[C@@H]1CCCN1C(=O)[C@H](CCCCN)NC(=O)CN)C(=O)NC(CCCc1ccccc1)C(=O)N[C@@H](CCCNC(=N)N)C(=O)O` (single isomer, unassigned) [Example 52]: 10.3 µM; `CC(C)C[C@H](NC(=O)CNC(=O)[C@H](CC1CCCCC1)NC(=O)CCCCCCN)C(=O)NC(CCOc1ccccc1)C(=O)N[C@@H](CCCNC(=N)N)C(=O)O` (some centres unmarked) [Example 48] (H-[Ahp][Cha]GL[X2]R-OH): 0.23 µM. Consider `CC(C)C[C@H](NC(=O)[C@H](C)NC(=O)[C@H](CC1CCCCC1)NC(=O)[C@@H]1CCCN1C(=O)[C@H](CCCCN)NC(=O)CN)C(=O)N[C@H](CSCc1ccccc1)C(=O)N[C@@H](CCCNC(=N)N)C(=O)O` [Example 31, H-Glycyl-Lysyl-Propyl-{(2S)-2-Amino-3-cyclohexylpropanoyl}-Alanyl-Leucyl-DCysteinyl(S-benzyl)-Arginyl-OH] (H-GKP[Cha]AL[dC](Bn)R-OH), for which the Ki amounted to 1.1 µM.

On to `CC(C)C[C@H](NC(=O)[C@H](C)NC(=O)[C@H](CC1CCCCC1)NC(=O)CCCCCN)C(=O)NC(CCCc1ccccc1)C(=O)N[C@@H](CCCNC(=N)N)C(=O)O` (single isomer, unassigned) [Example 121], for which the Ki came out at 7.15 µM. As for `CC(C)C[C@H](NC(=O)CNC(=O)[C@H](CCC1CCCCC1)NC(=O)CCCCCN)C(=O)NC(CCCc1ccccc1)C(=O)N[C@@H](CCCNC(=N)N)C(=O)O` (single isomer, unassigned) [Example 137], the Ki is 4.2 µM. Next, `CC(C)C[C@H](NC(=O)CCc1c[nH]c2ccccc12)C(=O)N[C@H](CCCc1ccccc1)C(=O)N[C@@H](CCCNC(=N)N)C(=O)O` [Example 38, N=(Indole-3-propionyl)-Leucyl-{(R)-2-Amino-5-phenylpentanoyl}-Arginyl-OH]: 8.4 µM. Next, `CC(C)C[C@H](NC(=O)[C@H](C)NC(=O)[C@H](CC1CCCCC1)NC(=O)[C@@H]1CCCN1C(=O)[C@H](CCCCN)NC(=O)CN)C(=O)N[C@@H](CSCc1ccccc1)C(=O)N[C@@H](CCCNC(=N)N)C(=O)O` [Example 108, H-Glycyl-Lysyl-Prolyl-{(2S)-2-Amino-3-cyclohexylpropanoyl}-Alanyl-Leucyl-Cysteinyl(S-benzyl)-Arginyl-OH] (H-GKP[Cha]ALC(Bn)R-OH): 4.8 µM. With `CC(C)C[C@H](NC(=O)CNC(=O)[C@H](CC1CCCCC1)NC(=O)CCCCCN)C(=O)NC(CCCc1ccccc1)C(=O)N[C@@H](CCCNC(=N)N)C(=O)O` (single isomer, unassigned) [Example 71] the figure was 0.15 µM; with `CC(C)C[C@H](NC(=O)CNC(=O)[C@H](Cc1ccccc1)NC(=O)CCCCCN)C(=O)NC(CCCc1ccccc1)C(=O)N[C@@H](CCCNC(=N)N)C(=O)O` (single isomer, unassigned) [Example 124, N-(6-Aminohexanoyl)-Phenylalanyl-Glycyl-Leucyl{(R/S)-2-Amino-5-phenylpentanoyl}-Arginyl-OH], 34 µM. Regarding `CC(C)C[C@H](NC(=O)CNC(=O)[C@H](CC1CCCCC1)N(C)C(=O)CCCCN)C(=O)NC(CCCc1ccccc1)C(=O)N[C@@H](CCCNC(=N)N)C(=O)O` (single isomer, unassigned) [Example 37], the inhibition constant (Ki) is 3.2 µM.

With `CC(C)C[C@H](NC(=O)CNC(=O)[C@H](CC1CCCCC1)NC(=O)Cc1ccccc1)C(=O)N[C@H](CCCc1ccccc1)C(=O)N[C@@H](CCCNC(=N)N)C(=O)O` [Example 47, N-Phenylacetyl-{(2S)-2-Amino-3-cyclohexylpropanoyl}-Glycyl-Leucyl-{(R)-2-Amino-5-phenylpentanoyl}-Arginyl-OH] (PhAc-[Cha]GL[d(hhPhe)]R-OH), the Ki was found to be 1.1 µM. For `C[C@H](NC(=O)CNC(=O)[C@@H](N)CC1CCCCC1)C(=O)NC(CCCc1ccccc1)C(=O)N[C@@H](CCCNC(=N)N)C(=O)O` (mixture of isomers) [Example 59, H-{(2S)-2-Amino-3-cyclohexylpropanoyl}-Glycyl-Alanyl-{(±)-2-Amino-5-phenylpentanoyl}-Arginyl-OH], the Ki stood at 67 µM. Next, `CC(C)C[C@H](NC(=O)CNC(=O)[C@H](CC1CCCCC1)NC(=O)CCCCN)C(=O)NC(CCCc1ccccc1)C(=O)N[C@@H](CCCNC(=N)N)C(=O)O` (single isomer, unassigned) [Example 140]: 18.6 µM. With `CSCC[C@H](NC(=O)[C@H](CC(=O)O)NC(=O)[C@@H](N)CCCCN)C(=O)N[C@@H](CCC(N)=O)C(=O)N[C@@H](CC(C)C)C(=O)NC(CCCc1ccccc1)C(=O)N[C@@H](CCCNC(=N)N)C(=O)O` (single isomer, unassigned) [Example 40, H-Lysyl-Aspartyl-Methionyl-Glutaminyl-Leucyl-{(R/S)-2-Amino-5-phenylpentanoyl}-Arginyl-OH], the Ki came out at 1.1 µM. With `CSCC[C@H](NC(=O)[C@H](CC(=O)O)NC(=O)[C@@H](N)CCCCN)C(=O)N[C@@H](CCC(N)=O)C(=O)N[C@@H](CC(C)C)C(=O)NC(CCCc1ccccc1)C(=O)N[C@@H](CCCNC(=N)N)C(=O)O` (single isomer, unassigned) [Example 39, H-Lysyl-Aspartyl-Methionyl-Glutaminyl-Leucyl-{(R/S)-2-Amino-5-phenylpentanoyl}-Arginyl-OH] the figure was 71 µM.
